{"source": "patent US20130040915A1", "about": "“PHARMACEUTICAL COMPOSITION” (CAPITAL, BUSINESS Y GESTION DE FINANZAS, S.L., priority 2010, published 2013)", "origin": "cited, not measured here", "key": {"[1]": {"system": "tumor-induced hypercalcaemia", "conditions": "subcutaneous infusion"}, "[2]": {"conditions": "high concentrations, of the order of 4.8 mg/ml"}, "[3]": {"assay": "not given", "remark": "listed apart in the source"}, "[4]": {"system": "adipose tissue cell membranes", "conditions": "concentrations of 1%"}}}
{"compound": "O=P(O)(O)C(O)(Cn1ccnc1)P(=O)(O)O", "note": "[Zoledronic acid]", "values": [{"measurement": "chemical stability in autoclave sterilization condition", "value": "chemically very stable"}]}
{"compound": "O=P(O)(O)C(Cl)(Cl)P(=O)(O)O", "note": "[clodronate]", "values": [{"measurement": "tolerability", "setting": "[1]; 1500 mg in 50 to 1000 ml, 2 to 24 hours", "value": "well tolerated"}, {"measurement": "control of tumor-induced hypercalcaemia (lowering the level of calcium)", "setting": "[1]; 149 patients, 254 infusions", "value": "effective"}]}
{"compound": "O=C([O-])CC(O)(CC(=O)[O-])C(=O)[O-].[Na+].[Na+].[Na+]", "note": "[sodium citrate]", "values": [{"measurement": "pain after a subcutaneous injection compared with a solution with histidine", "setting": "[2]", "value": "more pain"}]}
{"compound": "C[C@H](CCC(=O)NCCS(=O)(=O)O)[C@H]1CC[C@H]2[C@@H]3[C@H](O)C[C@@H]4C[C@H](O)CC[C@]4(C)[C@H]3C[C@H](O)[C@]12C", "note": "[sodium taurocholate]", "values": [{"measurement": "pKa", "setting": "[3]", "value": 1.4}]}
{"compound": "sodium deoxycholate", "values": [{"measurement": "pKa", "setting": "[3]", "value": 6.58}, {"measurement": "solubility", "setting": "[3]; pH 7.4 of the skin", "value": "sparingly soluble"}, {"measurement": "effect on adipose tissue cell membranes", "setting": "[4]", "value": "non-specific rupture of adipose tissue cell membranes"}]}
